In patent US4933363A, “Method for effecting systemic delivery of delta-9-tetrahydrocannabinol” (priority 1988, dated 1990):

Tests used:
[1] = 4×4 Latin square comparison of i.v., oral and suppository administration (GC/MS plasma levels); details: for Mean delta-9-tetrahydrocannabinol level in plasma: four monkeys; for concentration at 0.25 h / concentration at 0.5 h / concentration at 1 h / concentration at 1.5 h / concentration at 2 h / concentration at 3 h / concentration at 4 h / concentration at 6 h / concentration at 8 h / concentration at 24 h / concentration at 0.1 h: monkey, plasma
[2] = Suppository of N-methyl glucamine salt vs free hemisuccinate ester (GC/MS blood levels); details: equivalent to 10 mg parent drug per suppository, monkeys
[3] = Bioavailability of parent delta-9-tetrahydrocannabinol from a suppository (GC/MS of blood samples); format: in vivo, monkey; details: 10 mg/suppository
Protocol: The parent drug delta-9-tetrahydrocannabinol was formulated in a suppository form at 10 mg/suppository using Witepsol-H15 as the base. One suppository was administered to a monkey and blood samples collected at the same time intervals as shown under Examples II-V. GC/MS analysis of these samples was carried out for delta-9-tetrahydrocannabinol and its metabolite.

[4] = cited from earlier work
[5] = various suppository formulations; cited from earlier work
[6] = i.v., 0.5 mg/kg parent equivalent, 0.0 hr
[7] = Witepsol-H15, one monkey, GC/MS, all time points

CCCCCc1cc(OC(=O)CCC(=O)O)c2c(c1)OC(C)(C)[C@@H]1CCC(C)=C[C@@H]21 [Delta-9-tetrahydrocannabinol hemisuccinate ester]
equivalency of intravenous dosage of ester to intravenous dosage of parent ([1]; i.v., 0.5 mg/kg parent drug equivalent, monkeys): equivalency of the intravenous dosage of the hemisuccinate ester of delta-9-tetrahydrocannabinol to the intravenous dosage of the parent delta-9-tetrahydrocannabinol | Mean delta-9-tetrahydrocannabinol level in plasma [1, 6]: 0.0 ng/mL | concentration at 0.25 h [1]: 14.8 ng/mL | concentration at 0.5 h [1]: 33.5 ng/mL | concentration at 1 h [1]: 46 ng/mL | concentration at 1.5 h [1]: 53.5 ng/mL | concentration at 2 h [1]: 53.3 ng/mL | concentration at 3 h [1]: 50 ng/mL | concentration at 4 h [1]: 38 ng/mL | concentration at 6 h [1]: 18.5 ng/mL | concentration at 8 h [1]: 12.8 ng/mL | concentration at 24 h [1]: 1.3 ng/mL | concentration at 0.1 h ([1]; iv, 0.5 mg/kg): 2060 ng/mL | concentration at 0.25 h ([1]; iv, 0.5 mg/kg): 669 ng/mL | concentration at 0.5 h ([1]; iv, 0.5 mg/kg): 251 ng/mL | concentration at 1 h ([1]; iv, 0.5 mg/kg): 95.8 ng/mL | concentration at 1.5 h ([1]; iv, 0.5 mg/kg): 65.3 ng/mL | concentration at 2 h ([1]; iv, 0.5 mg/kg): 42.5 ng/mL | concentration at 3 h ([1]; iv, 0.5 mg/kg): 26.3 ng/mL | concentration at 4 h ([1]; iv, 0.5 mg/kg): 18.5 ng/mL | concentration at 6 h ([1]; iv, 0.5 mg/kg): 13 ng/mL | concentration at 8 h ([1]; iv, 0.5 mg/kg): 8 ng/mL | concentration at 24 h ([1]; iv, 0.5 mg/kg): 2.5 ng/mL | delivery of delta-9-tetrahydrocannabinol to the blood vs oral sesame seed oil formulation of parent ([1]; suppository vs oral 10 mg, monkeys): extraordinary superiority | Mean delta-9-tetrahydrocannabinol level in plasma ([1]; suppository, 0.0 hr): 0.0 ng/mL | Mean delta-9-tetrahydrocannabinol level in plasma ([1]; suppository, 0.1 hr): 0.0 ng/mL | blood levels, free ester vs N-methyl glucamine salt suppository [2]: virtually equivalent

CCCCCc1cc(O)c2c(c1)OC(C)(C)[C@@H]1CCC(C)=C[C@@H]21 [delta-9-tetrahydrocannabinol]
bioavailability from a suppository dosage form ([3]; Witepsol-H15, monkey): lack of bioavailability | delta-9-tetrahydrocannabinol detected in blood samples [3, 7]: Neither delta-9-tetrahydrocannabinol nor its metabolite was detected | metabolite (11-nor-delta-9-tetrahydrocannabinol-9-COOH) detected in blood samples [3, 7]: Neither delta-9-tetrahydrocannabinol nor its metabolite was detected | bioavailability via the oral routes ([4]; oral (e.g. chocolate cookies, sesame oil capsules)): quite low | effect of fasting or food deprivation on absorption from the gastrointestinal tract ([4]; oral, fasting or food deprivation): decreased by fasting or food deprivation | interpatient variability in absorption ([4]; oral, patients): extreme interpatient variability in absorption | oral absorption ([4]; oral): slow and erratic | Mean delta-9-tetrahydrocannabinol level in plasma [1, 6]: 0.0 ng/mL | concentration at 0.1 h ([1]; iv, 0.5 mg/kg): 1680 ng/mL | concentration at 0.25 h ([1]; iv, 0.5 mg/kg): 335 ng/mL | concentration at 0.5 h ([1]; iv, 0.5 mg/kg): 170 ng/mL | concentration at 1 h ([1]; iv, 0.5 mg/kg): 102 ng/mL | concentration at 1.5 h ([1]; iv, 0.5 mg/kg): 67.3 ng/mL | concentration at 2 h ([1]; iv, 0.5 mg/kg): 55.8 ng/mL | concentration at 3 h ([1]; iv, 0.5 mg/kg): 34 ng/mL | concentration at 4 h ([1]; iv, 0.5 mg/kg): 22.8 ng/mL | concentration at 6 h ([1]; iv, 0.5 mg/kg): 29 ng/mL | concentration at 8 h ([1]; iv, 0.5 mg/kg): 17.3 ng/mL | concentration at 24 h ([1]; iv, 0.5 mg/kg): 2.5 ng/mL | concentration at 3 h ([1]; po, 10 mg): 0.5 ng/mL | concentration at 4 h ([1]; po, 10 mg): 1.3 ng/mL | concentration at 6 h ([1]; po, 10 mg): 2.3 ng/mL | concentration at 8 h ([1]; po, 10 mg): 4.3 ng/mL | concentration at 24 h ([1]; po, 10 mg): 0.8 ng/mL | Mean delta-9-tetrahydrocannabinol level in plasma ([1]; oral, 10 mg in sesame oil, 0.0 hr): 0.0 ng/mL | Mean delta-9-tetrahydrocannabinol level in plasma ([1]; oral, 10 mg in sesame oil, 0.1 hr): 0.0 ng/mL | Mean delta-9-tetrahydrocannabinol level in plasma ([1]; oral, 10 mg in sesame oil, 0.25 hr): 0.0 ng/mL | Mean delta-9-tetrahydrocannabinol level in plasma ([1]; oral, 10 mg in sesame oil, 0.5 hr): 0.0 ng/mL | Mean delta-9-tetrahydrocannabinol level in plasma ([1]; oral, 10 mg in sesame oil, 1.0 hr): 0.0 ng/mL | Mean delta-9-tetrahydrocannabinol level in plasma ([1]; oral, 10 mg in sesame oil, 1.5 hr): 0.0 ng/mL | Mean delta-9-tetrahydrocannabinol level in plasma ([1]; oral, 10 mg in sesame oil, 2.0 hr): 0.0 ng/mL | absorption and bioavailability via the rectal route [5]: no absorption, consequently no bioavailability achieved via the rectal route
